From publication PMC5540273, “Progress towards a public chemogenomic set for protein kinases and a call for contributions” (PLoS ONE, 2017)

Tests used:
Assay in all cases: KINOMEscan competition binding
DYRK1B = DYRK1B (Homo sapiens, UniProt Q9Y463); details: read-out: %Inh DYRK1B
ERK4 = ERK4 (Homo sapiens, UniProt P31152); details: read-out: %Inh ERK4
ABL2 = ABL2 (Homo sapiens, UniProt P42684); details: read-out: %Inh ABL2
ACVR2B = ACVR2B (Homo sapiens, UniProt Q13705); details: read-out: %Inh ACVR2B
AMPK-alpha2 = AMPK-alpha2 (Homo sapiens, UniProt P54646); details: read-out: %Inh AMPK-alpha2
EIF2AK1 = EIF2AK1 (Homo sapiens, UniProt Q9BQI3); details: read-out: %Inh EIF2AK1
HUNK = biological target: T1, HUNK (Homo sapiens, UniProt P57058); details: read-out: %Inh HUNK
T1 sequence (P57058 1-714): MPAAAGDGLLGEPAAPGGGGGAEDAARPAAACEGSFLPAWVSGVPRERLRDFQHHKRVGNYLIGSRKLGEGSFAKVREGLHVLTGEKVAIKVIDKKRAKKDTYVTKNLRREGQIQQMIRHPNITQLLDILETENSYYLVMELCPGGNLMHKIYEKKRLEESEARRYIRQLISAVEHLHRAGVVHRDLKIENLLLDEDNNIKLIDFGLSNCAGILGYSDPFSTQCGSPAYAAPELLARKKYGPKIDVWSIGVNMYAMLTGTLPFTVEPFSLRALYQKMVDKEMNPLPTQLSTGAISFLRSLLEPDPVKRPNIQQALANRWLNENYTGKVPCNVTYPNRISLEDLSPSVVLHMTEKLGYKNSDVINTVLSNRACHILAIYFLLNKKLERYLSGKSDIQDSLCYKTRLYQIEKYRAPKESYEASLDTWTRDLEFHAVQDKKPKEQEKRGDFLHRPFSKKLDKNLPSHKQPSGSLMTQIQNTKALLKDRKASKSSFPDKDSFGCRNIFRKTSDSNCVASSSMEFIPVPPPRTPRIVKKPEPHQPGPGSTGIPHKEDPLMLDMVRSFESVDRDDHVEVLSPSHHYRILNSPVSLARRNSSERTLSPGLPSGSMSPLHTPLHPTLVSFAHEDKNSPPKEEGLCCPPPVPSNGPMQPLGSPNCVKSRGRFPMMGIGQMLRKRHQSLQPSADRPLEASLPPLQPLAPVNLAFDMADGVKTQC

BRSK1 = biological target: T2, BRSK1 (Homo sapiens, UniProt Q8TDC3); details: read-out: %Inh BRSK1
T2 sequence (Q8TDC3 1-778): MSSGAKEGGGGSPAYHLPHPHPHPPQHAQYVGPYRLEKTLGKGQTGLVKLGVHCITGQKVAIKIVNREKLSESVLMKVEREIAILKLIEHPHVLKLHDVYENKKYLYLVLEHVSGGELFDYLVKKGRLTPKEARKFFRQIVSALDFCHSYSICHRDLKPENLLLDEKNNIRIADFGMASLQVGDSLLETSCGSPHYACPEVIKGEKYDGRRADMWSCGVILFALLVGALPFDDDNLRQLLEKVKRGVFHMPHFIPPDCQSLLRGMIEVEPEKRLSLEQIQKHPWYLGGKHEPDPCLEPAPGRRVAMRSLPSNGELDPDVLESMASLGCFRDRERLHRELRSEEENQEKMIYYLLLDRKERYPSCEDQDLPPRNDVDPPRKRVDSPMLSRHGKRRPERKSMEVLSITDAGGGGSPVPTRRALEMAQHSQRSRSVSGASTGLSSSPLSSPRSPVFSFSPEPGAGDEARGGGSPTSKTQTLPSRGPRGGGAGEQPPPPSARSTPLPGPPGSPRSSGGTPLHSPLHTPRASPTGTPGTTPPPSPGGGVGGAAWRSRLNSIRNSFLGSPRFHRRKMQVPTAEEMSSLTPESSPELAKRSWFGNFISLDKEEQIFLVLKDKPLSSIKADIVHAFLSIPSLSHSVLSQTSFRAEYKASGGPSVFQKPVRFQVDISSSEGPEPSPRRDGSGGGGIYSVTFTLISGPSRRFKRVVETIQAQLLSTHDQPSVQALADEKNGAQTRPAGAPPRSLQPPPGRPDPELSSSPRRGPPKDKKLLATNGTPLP

Chain of ABL2 (P42684 whole entry): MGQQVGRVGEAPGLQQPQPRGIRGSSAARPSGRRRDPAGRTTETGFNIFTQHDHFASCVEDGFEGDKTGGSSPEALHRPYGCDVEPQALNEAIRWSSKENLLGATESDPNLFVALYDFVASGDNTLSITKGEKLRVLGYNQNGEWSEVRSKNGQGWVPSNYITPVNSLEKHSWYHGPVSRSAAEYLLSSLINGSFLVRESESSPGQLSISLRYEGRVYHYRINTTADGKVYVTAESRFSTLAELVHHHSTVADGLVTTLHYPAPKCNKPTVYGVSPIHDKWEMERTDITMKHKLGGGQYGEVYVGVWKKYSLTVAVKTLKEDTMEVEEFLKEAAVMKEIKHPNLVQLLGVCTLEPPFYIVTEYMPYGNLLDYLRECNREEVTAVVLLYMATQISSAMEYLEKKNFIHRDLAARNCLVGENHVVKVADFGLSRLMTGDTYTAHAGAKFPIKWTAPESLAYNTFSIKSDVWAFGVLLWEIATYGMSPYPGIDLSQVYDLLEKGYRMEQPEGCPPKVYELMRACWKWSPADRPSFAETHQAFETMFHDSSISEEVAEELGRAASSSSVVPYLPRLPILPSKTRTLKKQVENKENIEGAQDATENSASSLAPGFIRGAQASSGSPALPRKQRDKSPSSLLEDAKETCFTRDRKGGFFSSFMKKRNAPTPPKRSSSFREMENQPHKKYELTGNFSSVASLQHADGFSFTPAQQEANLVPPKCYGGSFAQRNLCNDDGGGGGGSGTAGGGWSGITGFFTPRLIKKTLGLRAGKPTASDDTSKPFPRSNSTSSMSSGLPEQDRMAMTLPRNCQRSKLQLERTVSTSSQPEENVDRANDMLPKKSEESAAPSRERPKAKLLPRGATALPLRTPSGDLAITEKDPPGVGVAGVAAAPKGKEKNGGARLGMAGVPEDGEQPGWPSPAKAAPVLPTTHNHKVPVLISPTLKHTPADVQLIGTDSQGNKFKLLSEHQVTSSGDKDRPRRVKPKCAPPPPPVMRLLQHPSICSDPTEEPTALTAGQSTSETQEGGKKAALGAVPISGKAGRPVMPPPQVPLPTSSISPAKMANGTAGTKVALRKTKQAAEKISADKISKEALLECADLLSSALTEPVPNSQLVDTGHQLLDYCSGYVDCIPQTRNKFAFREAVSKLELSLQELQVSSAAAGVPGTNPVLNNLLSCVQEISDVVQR
Chain of ERK4 (P31152 whole entry): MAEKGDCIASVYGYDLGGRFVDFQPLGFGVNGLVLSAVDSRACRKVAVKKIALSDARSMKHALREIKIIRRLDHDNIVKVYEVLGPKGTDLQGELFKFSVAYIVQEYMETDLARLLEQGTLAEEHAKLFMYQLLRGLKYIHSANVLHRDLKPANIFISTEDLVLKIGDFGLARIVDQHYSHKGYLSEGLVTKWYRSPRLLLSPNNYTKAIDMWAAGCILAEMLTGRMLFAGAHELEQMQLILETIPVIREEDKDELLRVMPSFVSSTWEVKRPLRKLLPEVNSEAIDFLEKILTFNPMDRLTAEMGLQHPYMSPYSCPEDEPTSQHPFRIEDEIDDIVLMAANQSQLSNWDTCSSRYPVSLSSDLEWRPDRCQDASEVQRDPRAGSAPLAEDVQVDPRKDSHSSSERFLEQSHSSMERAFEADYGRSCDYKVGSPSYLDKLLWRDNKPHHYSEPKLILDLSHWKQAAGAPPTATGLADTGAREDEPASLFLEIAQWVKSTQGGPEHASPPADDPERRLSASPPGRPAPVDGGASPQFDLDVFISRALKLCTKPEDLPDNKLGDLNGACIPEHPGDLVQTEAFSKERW
Chain of ACVR2B (Q13705 19-512): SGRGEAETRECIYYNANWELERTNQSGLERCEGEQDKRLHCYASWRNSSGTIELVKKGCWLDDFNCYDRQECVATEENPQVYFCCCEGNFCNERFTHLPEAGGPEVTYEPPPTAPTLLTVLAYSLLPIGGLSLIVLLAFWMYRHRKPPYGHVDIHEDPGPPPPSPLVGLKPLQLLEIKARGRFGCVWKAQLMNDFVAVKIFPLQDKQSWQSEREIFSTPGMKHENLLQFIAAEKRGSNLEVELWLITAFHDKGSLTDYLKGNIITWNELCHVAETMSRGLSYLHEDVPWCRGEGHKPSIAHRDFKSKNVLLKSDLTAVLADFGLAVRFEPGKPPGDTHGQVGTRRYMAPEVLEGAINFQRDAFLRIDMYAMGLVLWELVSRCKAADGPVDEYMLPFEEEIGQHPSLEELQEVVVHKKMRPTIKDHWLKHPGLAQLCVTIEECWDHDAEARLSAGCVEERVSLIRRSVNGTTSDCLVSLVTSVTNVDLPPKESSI
Chain of AMPK-alpha2 (P54646 whole entry): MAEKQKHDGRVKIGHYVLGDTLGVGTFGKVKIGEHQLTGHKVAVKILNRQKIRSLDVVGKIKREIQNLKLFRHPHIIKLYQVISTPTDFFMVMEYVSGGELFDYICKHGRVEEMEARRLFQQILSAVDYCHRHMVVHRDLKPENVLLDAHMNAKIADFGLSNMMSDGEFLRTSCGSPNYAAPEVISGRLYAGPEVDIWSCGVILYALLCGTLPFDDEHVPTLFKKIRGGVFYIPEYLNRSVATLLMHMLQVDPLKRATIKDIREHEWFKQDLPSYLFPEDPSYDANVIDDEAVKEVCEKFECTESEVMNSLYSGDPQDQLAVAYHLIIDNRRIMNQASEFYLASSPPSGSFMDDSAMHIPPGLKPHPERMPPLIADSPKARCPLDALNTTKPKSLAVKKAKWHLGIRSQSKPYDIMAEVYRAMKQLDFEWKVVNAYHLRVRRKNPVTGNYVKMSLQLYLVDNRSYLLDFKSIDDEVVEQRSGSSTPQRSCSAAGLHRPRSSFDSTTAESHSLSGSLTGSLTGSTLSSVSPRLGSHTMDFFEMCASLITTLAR
Chain of DYRK1B (Q9Y463 whole entry): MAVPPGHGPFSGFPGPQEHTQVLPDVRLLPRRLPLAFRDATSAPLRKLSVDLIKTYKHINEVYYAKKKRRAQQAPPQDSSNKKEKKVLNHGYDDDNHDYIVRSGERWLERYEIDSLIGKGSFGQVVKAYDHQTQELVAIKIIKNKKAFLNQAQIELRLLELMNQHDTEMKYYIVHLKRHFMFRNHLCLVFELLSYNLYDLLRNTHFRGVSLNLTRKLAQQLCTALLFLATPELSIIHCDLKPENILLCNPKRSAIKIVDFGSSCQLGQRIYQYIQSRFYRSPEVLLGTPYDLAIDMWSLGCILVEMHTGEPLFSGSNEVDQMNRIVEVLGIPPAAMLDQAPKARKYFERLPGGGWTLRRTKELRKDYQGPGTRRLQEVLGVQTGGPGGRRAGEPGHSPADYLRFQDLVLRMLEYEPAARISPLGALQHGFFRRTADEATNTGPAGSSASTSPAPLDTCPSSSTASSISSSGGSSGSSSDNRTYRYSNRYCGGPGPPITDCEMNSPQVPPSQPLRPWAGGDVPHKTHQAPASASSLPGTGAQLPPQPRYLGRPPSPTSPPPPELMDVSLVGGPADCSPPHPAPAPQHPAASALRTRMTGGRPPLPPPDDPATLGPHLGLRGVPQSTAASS
Chain of EIF2AK1 (Q9BQI3 whole entry): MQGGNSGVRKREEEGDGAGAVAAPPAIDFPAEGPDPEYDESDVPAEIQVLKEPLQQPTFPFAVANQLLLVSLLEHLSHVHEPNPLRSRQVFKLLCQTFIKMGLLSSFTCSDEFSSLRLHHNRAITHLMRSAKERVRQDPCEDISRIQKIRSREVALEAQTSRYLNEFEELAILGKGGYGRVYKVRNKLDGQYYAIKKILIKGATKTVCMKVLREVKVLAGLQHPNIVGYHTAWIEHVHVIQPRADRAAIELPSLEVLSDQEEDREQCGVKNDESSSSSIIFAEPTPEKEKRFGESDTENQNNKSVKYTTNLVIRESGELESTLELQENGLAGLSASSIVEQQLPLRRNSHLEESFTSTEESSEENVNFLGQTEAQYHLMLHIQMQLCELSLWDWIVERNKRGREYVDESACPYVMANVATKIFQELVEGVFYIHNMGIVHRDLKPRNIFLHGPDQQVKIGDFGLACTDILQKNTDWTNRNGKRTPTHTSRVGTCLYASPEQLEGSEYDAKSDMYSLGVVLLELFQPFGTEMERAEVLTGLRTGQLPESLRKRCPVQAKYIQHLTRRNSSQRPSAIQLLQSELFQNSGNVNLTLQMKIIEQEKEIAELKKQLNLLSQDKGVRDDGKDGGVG

Row | Structure (SMILES) | inhibition at 1 µM (DYRK1B) [%] | inhibition at 1 µM (ERK4) [%] | inhibition at 1 µM (ABL2) [%] | inhibition at 1 µM (ACVR2B) [%] | inhibition at 1 µM (AMPK-alpha2) [%] | inhibition at 1 µM (EIF2AK1) [%] | inhibition at 1 µM (HUNK) [%] | inhibition at 1 µM (BRSK1) [%]
1 | Cn1cc(-c2cnc(N)c3c(-c4ccc5c(c4)CCN5C(=O)Cc4ccccc4)csc23)cn1 [UNC10225012A] | 0 | 0 | 81 | 0 | 0 | 7 | 0 | 0
2 | O=c1cc(N2CCOCC2)nc2n(Cc3cccc(Cl)c3Cl)c(C3CC3)nn12 [UNC10225469A] | 0 | 0 | 5 | 0 | 0 | 0 | 0 | 3
3 | COc1cccc(OC)c1C(=O)Nc1cccc(-c2nn3ccccc3c2-c2ccnc(Nc3cccc(F)c3)n2)c1 [UNC10225310A] | 24 | 9 | 100 | 27 | 4 | 0 | 15 | 0
4 | CS(=O)(=O)Cc1ccc(Nc2nccc(-c3c(-c4cccc(NC(=O)C5CCCCC5)c4)nn4ncccc34)n2)cc1 [UNC10225159A] | 0 | 3 | 5 | 0 | 2 | 22 | 7 | 0
5 | Cc1ccc(NC(=O)Nc2cccc(C(F)(F)F)c2)cc1 [UNC10225187A] | 0 | 0 | 3 | 0 | 0 | 0 | 0 | 0
